Results published in EP4000606A1, “COMPOUNDS FOR CORONAVIRUS INFECTION TREATMENT AND/OR PREVENTION” (priority 2020, dated 2022).
Like-named read-outs stand apart in the source and are kept apart here. Peptide text beside a SMILES is read from it. * marks the point of attachment. Cbz = O=C(OCc1ccccc1)*

Test system: SARS-CoV-2
Test: microbe, parasite or virus in culture
Format: cell-based
Settings: for IC50: Severe acute respiratory syndrome coronavirus 2, 120 h

| Structure (SMILES) | Maximum confluence reached (%) (5 days) | IC50 [µM] | Maximum confluence reached (%) |
| --- | --- | --- | --- |
| CC(C)COCC(CN(Cc1ccccc1)c1ccccc1)N1CCCC1.Cl.O (stereo not drawn) [compound 78, 1-[1-(N-Benzylanilino)-3-isobutoxy-2-propyl]pyrrolidine monohydrochloride monohydrate] | 30.41 |  |  |
| CCC(C/C=C/c1ccccc1)(c1ccccc1)N(C)CC1CC1 (single isomer, unassigned; (+)) [compound 89, (+)-N-(Cyclopropylmethyl)-N-[1-ethyl-1,4-diphenyl-3(E)-butenyl]-N-methylamine] | 58.34 | 11.2 |  |
| CN1CCN(CC/C=C2/c3ccccc3Sc3ccc(S(=O)(=O)N(C)C)cc32)CC1 [compound 109, (Z)-N,N-Dimethyl-9-[3-(4-methyl-1-piperazinyl)propylidene]thioxant hene-2-sulfonamide] | 36.55 |  |  |
| O=[N+]([O-])c1ccc(N/N=C/c2sc(N3CCOCC3)nc2-c2ccccc2)c(S(=O)(=O)Nc2ccccc2Cl)c1 [compound 73, N-(2-chlorophenyl)-2-[(2E)-2-[(2-morpholin-4-yl-4-phenyl-1,3-thiazol-5-yl)methylidene]hydrazinyl]-5-nitrobenzenesulfonamide] | 53.9 |  |  |
| Cc1nc(N)nc(N)c1-c1ccc(Cl)c(Cl)c1 [compound 41, 5-(3,4-Dichlorophenyl)-6-methylpyrimidine-2,4-diamine] | 58.02 |  |  |
| CC(C)C[C@@H](C=O)NC(=O)[C@H](CC(C)C)NC(=O)[C@H](CC(C)C)NC(=O)OCc1ccccc1 [compound 52, Benzyloxycarbonyl-L-leucyl-L-leucyl-L-leucinal] (Cbz-Leu-Leu-Leu-aldehyde) | 82.81 |  |  |
| CC(C)N1CCN(c2ccc(C(=O)c3c(-c4ccc(O)cc4)sc4cc(O)ccc34)cc2)CC1 [compound 87, 1-[6-Hydroxy-2-(4-hydroxyphenyl)-1-benzothien-3-yl]-1-[4-(4-isopropylpiperazin-1-yl)phenyl]methanone] | 41.04 |  |  |
| C/C(=C\c1ccc(C(=O)O)cc1)c1ccc2c(c1)C(C)(C)CCC2(C)C [compound 26, 4-[2-(5,5,8,8-Tetramethyl-5,6,7,8-tetrahydronaphthalen-2-yl)-1(E)-propenyl]benzoic acid] | 105.73 | 33.7 |  |
| COc1cc(NCc2ccc3nc(N)nc(N)c3c2C)cc(OC)c1OC [compound 2, 2,4-Diamino-5-methyl-6-[(3,4,5-trimethoxyanilino)methyl]quinaz oline 5-Methyl-6-[[(3,4,5-trimetoxyphenyl)amino]methyl]-2,4-quinazolinediamine] | 78.23 |  |  |
| COc1ccc2c(c1)[C@]1(C[C@H]1c1ccc3c(/C=C/c4ccc(CN5C[C@@H](C)O[C@@H](C)C5)cc4)n[nH]c3c1)C(=O)N2.O=C(O)/C=C/C(=O)O [compound 33, (1R,2S)-2-[3-[(E)-2-[4-[(cis-2,6-Dimethylmorpholin-4-yl)methyl]phenyl]vinyl]-1H-indazol-6-yl]-5'-methoxyspiro[cyclopropane-1,3'-indol]-2'(1'H)-one (2E)-but-2-enedioate] | 105.46 |  |  |
| CC(C)(C)C(=O)C(=Cc1cccc([N+](=O)[O-])c1)n1cncn1 [compound 76, 4,4-dimethyl-1-(3-nitrophenyl)-2-(1H-1,2,4-triazol-1-yl)-1-penten-3-one] |  | 4.33 | 50.44 |
| COc1ccccc1[C@H](Cn1c(=O)n(C(C)(C)C(=O)O)c(=O)c2c(C)c(-c3ncco3)sc21)OC1CCOCC1 [compound 61, 2-[1-[(2R)-2-(2-Methoxyphenyl)-2-(tetrahydro-2H-pyran-4-yloxy)ethyl]-5-methyl-6-(1,3-oxazol-2-yl)-2,4-dioxo-1,4-dihydrothieno[2,3-d]pyrimidin-3(2H)-yl]-2-methylpropanoic acid] | 78.18 |  |  |
